In paper PMC3427316 (PLoS ONE, 2012):

What was measured:
[1] = tested on: NA with I223R mutation of H1N1pdm09 virus; assay type: biochemical, influenza A(H1N1)pdm09 virus
[2] = tested on: H1N1pdm09 virus resistant to oseltamivir; details: zanamivir inhaled (n = 8), intravenous (n = 5) or nebulised (n = 1); cited from earlier work

Row | Compound | reduction in susceptibility associated with the I223R mutation [1] [fold] | patients with reduced viral shedding or recovery [2]
1 | CCC(CC)O[C@@H]1C=C(C(=O)O)C[C@H](N)[C@H]1NC(C)=O [OC, oseltamivir carboxylate] | 9 to 18 | –
2 | CC(=O)N[C@H]1[C@H]([C@H](O)[C@H](O)CO)OC(C(=O)O)=C[C@@H]1N=C(N)N [ZAN, zanamivir] | – | 12/14
